Measurements published in ChEMBL document CHEMBL1201862, “PubChem BioAssay data set” (2004).
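Step 1: Grow cells in 96-well plates. Step 2: Expose to compound for 48 hours at 5 concentrations. Step 3: Interpolate endpoints linearly; if unreached, use highest concentration. Abbreviation: GI50, concentration required for 50% inhibition of growth.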 Activity calls are given as the source filed them. Cut-off read from the data, not from the text of the source: active = GI50 up to about 1.1 µM and inactive = higher.

Assays:
Test in all cases: growth of human tumour cells (NCI), 48 h
[1] = test system: RXF 393
[2] = test system: SF-539
[3] = test system: ACHN
[4] = test system: UO-31
[5] = test system: A498
[6] = test system: SF-295
[7] = test system: PC-3
[8] = test system: Hs-578T
[9] = test system: U-251
[10] = test system: NCI/ADR-RES
[11] = test system: NCI-H23
[12] = test system: UACC-62
[13] = test system: Malme-3M
[14] = test system: HOP-62
[15] = test system: MDA-MB-231
[16] = test system: SNB-75
[17] = test system: MOLT-4
[18] = test system: MDA-MB-435
[19] = test system: SF-268
[20] = test system: SR

| Compound | GI50 [1] | GI50 [2] | GI50 [3] | GI50 [4] | GI50 [5] | GI50 [6] | GI50 [7] | GI50 [8] | GI50 [9] | GI50 [10] | GI50 [11] | GI50 [12] | GI50 [13] | GI50 [14] | GI50 [15] | GI50 [16] | GI50 [17] | GI50 [18] | GI50 [19] | GI50 [20] |
| --- | --- | --- | --- | --- | --- | --- | --- | --- | --- | --- | --- | --- | --- | --- | --- | --- | --- | --- | --- | --- |
| C=C1CC[C@H]2C(=O)OC(c3ccoc3)C[C@]2(C)C/C=C\C=C/1C(=O)OC (stereo partly drawn) | > 25 µM (inactive) | > 25 µM (inactive) | > 25 µM (inactive) | 13.6 µM (inactive) | > 25 µM (inactive) | > 25 µM (inactive) | > 25 µM (inactive) | > 25 µM (inactive) | > 25 µM (inactive) | 13.2 µM (inactive) | 11.4 µM (inactive) | > 25 µM (inactive) | > 25 µM (inactive) | > 25 µM (inactive) | > 25 µM (inactive) | 24 µM (inactive) |  |  |  |  |
| COc1ccc2c(c1)CC[C@@H]1[C@@H]2CC[C@]2(C)C(=O)/C(=C/c3cc(OC)c(OC)c(OC)c3)C[C@@H]12 | 29.6 µM (inactive) | 28.2 µM (inactive) | 21.7 µM (inactive) | 47.2 µM (inactive) | 59 µM (inactive) | 29.4 µM (inactive) | 14 µM (inactive) |  | 34.8 µM (inactive) | 15.4 µM (inactive) | 25 µM (inactive) | 30.2 µM (inactive) | 17.8 µM (inactive) | 17 µM (inactive) | 18.1 µM (inactive) | 19.4 µM (inactive) | 95.9 µM (inactive) | > 100 µM (inactive) | 0.0149 µM (active) | 15.2 µM (inactive) |
| CCC(c1c[nH]c2ccc(Br)cc12)c1c[nH]c2ccc(Br)cc12 | 2.32 µM (inactive) | 12.5 µM (inactive) | 3.65 µM (inactive) | 6.97 µM (inactive) | 3.79 µM (inactive) | 5.92 µM (inactive) | 4.81 µM (inactive) | 5.82 µM (inactive) | 3.72 µM (inactive) | 3.08 µM (inactive) | 2.96 µM (inactive) | 10.2 µM (inactive) | 10.6 µM (inactive) | 10.5 µM (inactive) | 11.1 µM (inactive) |  | 1.94 µM (inactive) | 3.13 µM (inactive) | 5.97 µM (inactive) |  |
| O=C1CSC(c2ccc(Cl)cc2)N1c1ccc(Oc2ccc(Cl)cc2)c(Cl)c1 (stereo not drawn) |  | 14.6 µM (inactive) | 17.4 µM (inactive) | 8.26 µM (inactive) |  | 16.3 µM (inactive) | 15.2 µM (inactive) | 11 µM (inactive) | 16.6 µM (inactive) | 17.4 µM (inactive) | 16.9 µM (inactive) | 15.4 µM (inactive) | 7.66 µM (inactive) | 21.3 µM (inactive) | 16.4 µM (inactive) | 12.3 µM (inactive) | 14.2 µM (inactive) | 17.6 µM (inactive) | 10.7 µM (inactive) | 18.4 µM (inactive) |
| N#Cc1c2ccc([N+](=O)[O-])cc2c(=O)n2c1sc1ccccc12 |  |  | 32.4 µM (inactive) | 22.6 µM (inactive) | 13.5 µM (inactive) |  | 14.8 µM (inactive) | 48 µM (inactive) | 14.6 µM (inactive) | 18.4 µM (inactive) | 15.2 µM (inactive) | 28 µM (inactive) |  |  | 17.2 µM (inactive) | 42.2 µM (inactive) |  | 57.7 µM (inactive) | 56.2 µM (inactive) | 3.94 µM (inactive) |
| O=C(Sc1c(-c2ccccc2)c(=O)n(-c2ccccc2)c(=S)n1-c1ccccc1)c1ccccc1 |  |  | > 100 µM (inactive) | 41.6 µM (inactive) |  | 47.4 µM (inactive) | > 100 µM (inactive) | 33.7 µM (inactive) | 79.1 µM (inactive) | 75 µM (inactive) | > 100 µM (inactive) | 33.5 µM (inactive) | > 100 µM (inactive) | > 100 µM (inactive) |  | 12.3 µM (inactive) | 19.5 µM (inactive) | 93.3 µM (inactive) | > 100 µM (inactive) | 31.3 µM (inactive) |
| c1cc(CSP234N5CCN2CCN3CCN4CC5)ccc1CSP123N4CCN1CCN2CCN3CC4 |  | 64.6 µM (inactive) | > 100 µM (inactive) | 99.8 µM (inactive) |  | > 100 µM (inactive) | > 100 µM (inactive) | > 100 µM (inactive) | 68.5 µM (inactive) | > 100 µM (inactive) | > 100 µM (inactive) | > 100 µM (inactive) |  | > 100 µM (inactive) | 62.7 µM (inactive) | > 100 µM (inactive) | 91.4 µM (inactive) | 97.3 µM (inactive) | > 100 µM (inactive) |  |
| CCOC(=O)/C(C(=O)NC(C)C)=C(/N)N1CCOCC1 | > 100 µM (inactive) | > 100 µM (inactive) | > 100 µM (inactive) |  | > 100 µM (inactive) | > 100 µM (inactive) | > 100 µM (inactive) | > 100 µM (inactive) | > 100 µM (inactive) | > 100 µM (inactive) | > 100 µM (inactive) | > 100 µM (inactive) | > 100 µM (inactive) | > 100 µM (inactive) | > 100 µM (inactive) | > 100 µM (inactive) | > 100 µM (inactive) | > 100 µM (inactive) | > 100 µM (inactive) |  |
| O=C1N/C(=N/N=C\c2ccccc2)N/C1=C/c1ccc(Cl)cc1 | 21.2 µM (inactive) | 23.9 µM (inactive) | 13.8 µM (inactive) | 16.2 µM (inactive) |  | 25.7 µM (inactive) | 18.4 µM (inactive) | 20.5 µM (inactive) | 22.8 µM (inactive) | 23.2 µM (inactive) | 19 µM (inactive) |  | 20.8 µM (inactive) | 17.1 µM (inactive) | 29.3 µM (inactive) | 18.7 µM (inactive) | 15.5 µM (inactive) | 33.3 µM (inactive) | 22.2 µM (inactive) | 13.3 µM (inactive) |
| CCOC(=O)/C=C/C1(CCOC(C)=O)CCCCC1 | > 10 µM (inactive) | > 10 µM (inactive) | > 10 µM (inactive) | > 10 µM (inactive) |  | > 10 µM (inactive) | > 10 µM (inactive) | > 10 µM (inactive) | > 10 µM (inactive) | > 10 µM (inactive) | > 10 µM (inactive) | > 10 µM (inactive) |  | > 10 µM (inactive) | > 10 µM (inactive) | > 10 µM (inactive) | > 10 µM (inactive) | > 10 µM (inactive) | > 10 µM (inactive) | > 10 µM (inactive) |
| C=CCn1c(-c2ccc(Cl)cc2)cs/c1=N\c1ccccc1OC | > 100 µM (inactive) | > 76.7 µM (inactive) | > 100 µM (inactive) | > 100 µM (inactive) | > 100 µM (inactive) | 16.6 µM (inactive) | 32.7 µM (inactive) | > 100 µM (inactive) | > 69.5 µM (inactive) | 6.5 µM (inactive) | 7.67 µM (inactive) | 10.1 µM (inactive) | 31.1 µM (inactive) | 48.9 µM (inactive) |  | > 33.3 µM (inactive) | 0.179 µM (active) | 5.06 µM (inactive) | > 100 µM (inactive) | 0.195 µM (active) |
| C[C@@H]1OC(=O)/C(=C\N(C)C)[C@H]2CC(=O)N(CCc3cn(S(=O)(=O)C(F)(F)F)c4ccccc34)C[C@H]12 | > 100 µM (inactive) | > 100 µM (inactive) | > 100 µM (inactive) | > 100 µM (inactive) | > 100 µM (inactive) | > 100 µM (inactive) | > 100 µM (inactive) |  | > 100 µM (inactive) | > 100 µM (inactive) | > 100 µM (inactive) |  | > 100 µM (inactive) | > 100 µM (inactive) | > 100 µM (inactive) | > 100 µM (inactive) | > 100 µM (inactive) | > 100 µM (inactive) | > 100 µM (inactive) |  |
| CNC1(c2cc3ccccc3s2)CCCCC1 | 23.4 µM (inactive) | 20.4 µM (inactive) | 42.6 µM (inactive) | 46.9 µM (inactive) | 33.3 µM (inactive) | 25 µM (inactive) | 18.1 µM (inactive) |  | 17.8 µM (inactive) | 33.3 µM (inactive) | 57.4 µM (inactive) | 20.6 µM (inactive) |  | 33.9 µM (inactive) | 23.2 µM (inactive) | 21.5 µM (inactive) | 42.2 µM (inactive) | 16.8 µM (inactive) | 14.2 µM (inactive) | 25 µM (inactive) |
| O=P1(c2ccccc2)C2=CCC=CC2C(c2ccccc2)N1Cc1ccccc1 (stereo not drawn) |  | 17.4 µM (inactive) | 16.7 µM (inactive) | 12.4 µM (inactive) |  | 13.5 µM (inactive) | 13.4 µM (inactive) | 19 µM (inactive) | 14.3 µM (inactive) | 14.5 µM (inactive) | 12.3 µM (inactive) | 8.63 µM (inactive) | 17.8 µM (inactive) | 19.6 µM (inactive) | 15.9 µM (inactive) |  | 16.1 µM (inactive) | 15.6 µM (inactive) | 14.7 µM (inactive) | 24.2 µM (inactive) |
| CN(C)c1nc2nonc2nc1Nc1ccccc1 | > 100 µM (inactive) |  | > 100 µM (inactive) | > 100 µM (inactive) | > 100 µM (inactive) | > 100 µM (inactive) | > 100 µM (inactive) | > 100 µM (inactive) | > 100 µM (inactive) | > 100 µM (inactive) | > 100 µM (inactive) | > 100 µM (inactive) | > 100 µM (inactive) | > 100 µM (inactive) | > 100 µM (inactive) | > 100 µM (inactive) | > 100 µM (inactive) |  | > 100 µM (inactive) | > 100 µM (inactive) |
| COc1ccc2c(c1)CC[C@@H]1[C@@H]2CC[C@]2(C)[C@@H](O)/C(=C/c3ccncc3)C[C@@H]12 | 4.25 µM (inactive) |  | 26.5 µM (inactive) | 14 µM (inactive) | 17.5 µM (inactive) | 10.5 µM (inactive) | 10.1 µM (inactive) | 12.8 µM (inactive) | 12.4 µM (inactive) | 15 µM (inactive) | 12.8 µM (inactive) | 13.8 µM (inactive) | 12.3 µM (inactive) | 16.9 µM (inactive) | 14.2 µM (inactive) | 10.4 µM (inactive) | 4.65 µM (inactive) | 9.77 µM (inactive) | 12.6 µM (inactive) |  |
